Results published in patent publication US20200291444A1, “Macrocyclisation Tags” (Oxford University Innovation LTD, priority 2017, published 2020).
No end group written: not given here.

Experiments:
[1] = tested on: T1, 13mer truncated substrate
T1 sequence: IWGIGCNPWTAEH

[2] = tested on: T2, 14mer truncated substrate
T2 sequence: IWGIGCNPWTAEHV

[3] = tested on: T3, 25mer substrate
T3 sequence: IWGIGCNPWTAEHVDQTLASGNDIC

[4] = biological target: PCY1:S562A; assay: ITC equilibrium binding to PCY1:S562A; design: species or system Saponaria vaccaria; conditions: ITC, 25° C.
Protocol: (§1) All PCY1 samples were buffer-exchanged or solubilized into buffer F and further diluted in the same batch of buffer F, in order to minimize buffer mismatches. ITC binding experiments were performed using a cell solution containing PCY1:S562A and a titrant solution with each peptide used. […] The measurements were performed at a stir speed of 750 rpm at 25° C. using a reference power of 10 μcal/s, except for A1-NH2 (5 μcal/s). A buffer titration control in which peptide was titrated into buffer was performed for each experiment. Data processing, fitting to a non-linear one-site binding model, and data plotting was performed using MicroCal PEAQ ITC analysis software (Malvern). […] The measurement was performed in buffer at 30° C., at 750 rpm using a reference power of 5 μcal/s.

[5] = tested on: PCY1; assay: Single injection kinetic ITC with PCY1; format: biochemical, Saponaria vaccaria; conditions: 30° C.
Protocol: as §1, with “used. All peptides were used at 200 μM except for presegetalin A1-NH2 (700 μM).” for “used.”

[6] = tested on: PCY1; assay: LC/MS time course of macrocyclisation by PCY1; format: biochemical, Saponaria vaccaria; conditions: 200 μM substrate, 3.6 μM PCY1
Protocol: (§2) All kinetic measurements (activity tests, progress curves and initial-rate experiments) were performed as discontinuous assays analyzing samples via LC/MS or MALDI (10-mer activity test). Reactions were performed in 20 mM Tris pH 8.5, 100 mM NaCl, 5 mM DTT (for progress curves 0.2 mg mL-1 BSA was included).17 Reactions were performed at 30° C. and at various time points 50 μL samples were quenched with 20 μL of 6% (v/v) TFA. Samples (50 μL) were loaded onto a ZORBAX SBC18, 5 μm, 9.4 mm×50 mm (Agilent) column connected to an Agilent LC-MS instrument (G6130B Single Quad, Agilent Technologies). Reactants were separated from products using a gradient from A (H2O with 0.1% formic acid) to 80% B (acetonitrile), at a rate of 1.5 mL/min for 8.75 min. For data analysis, ion count peaks and UV absorbance peaks were integrated using Agilent ChemStation software. For data analysis involving quantitative mass spec integration, calibration curves with macrocyclic peptide product were performed in triplicate in order to linearly correlate ion counts to cyclic product concentration. Data fitting and plotting was performed with Prism 6.
PCY1 extracted from S. vaccaria seeds has been previously described to have a turnover number of ˜1 h^−1 for PresegA1.^17 The enzyme produced heterologously in E. coli was evaluated by LC/MS-based time course experiments macrocyclizing 200 μM of PresegA1, PresegB1 or PresegF1 with 3.6 μM PCY1. […] We chose to investigate the slowest and fastest substrate by steady-state kinetics using an LC/MS assay and UV280 nm quantification. […] Under the ITC conditions, the measured kcat (0.14±0.01 s^−1) was a factor of three lower than the LC/MS derived values. […] Therefore, we resorted to an LC/MS assay followed by quantification using mass ion counts, relying on a calibration curve employing the macrocyclic peptide product as a standard (FIG. 2b).

[7] = tested on: PCY1; assay: LC/MS steady-state kinetics of macrocyclisation by PCY1; format: biochemical, Saponaria vaccaria
Protocol: as §2
PCY1 extracted from S. vaccaria seeds has been previously described to have a turnover number of ˜1 h^−1 for PresegA1.^17 The enzyme produced heterologously in E. coli was evaluated by LC/MS-based time course experiments macrocyclizing 200 μM of PresegA1, PresegB1 or PresegF1 with 3.6 μM PCY1. These substrates were chosen as they produce 6, 5 and 9 residue macrocycles, respectively, show variability in the length of the C-terminal tail sequence, and have a different C-terminal core residue (proline in PresegF1, alanine in the other two) (FIG. 1b). PresegB1 was completely macrocyclized in ˜30 min, PresegA1 in ˜50 min and PresegF1 in >3 h (FIG. 2a). We chose to investigate the slowest and fastest substrate by steady-state kinetics using an LC/MS assay and UV280 nm quantification. […] Under the ITC conditions, the measured kcat (0.14±0.01 s^−1) was a factor of three lower than the LC/MS derived values. […] Therefore, we resorted to an LC/MS assay followed by quantification using mass ion counts, relying on a calibration curve employing the macrocyclic peptide product as a standard (FIG. 2b).

[8] = tested on: PCY1; conditions: PCY1 extracted from S. vaccaria seeds; cited from earlier work
[9] = tested on: PCY1; assay: PCY1 macrocyclisation of hybrid precursor peptides containing non-amino acids (Maldi); format: biochemical, Saponaria vaccaria; conditions: 16 h incubation with PCY1, Maldi spectrum
Protocol: as §2, with “6. […]” for “6.”

[10] = biological target: T4, GmPOPB_S577A (Galerina marginata, UniProt H2E7Q8, S577A); assay: ITC binding to inactive mutant GmPOPB_S577A
T4 construct: His-tag (TEV-cleavable) (cleaved yes); made in house; host or cells: E. coli BL21(DE3)
T4 sequence (H2E7Q8 1-730 S577A): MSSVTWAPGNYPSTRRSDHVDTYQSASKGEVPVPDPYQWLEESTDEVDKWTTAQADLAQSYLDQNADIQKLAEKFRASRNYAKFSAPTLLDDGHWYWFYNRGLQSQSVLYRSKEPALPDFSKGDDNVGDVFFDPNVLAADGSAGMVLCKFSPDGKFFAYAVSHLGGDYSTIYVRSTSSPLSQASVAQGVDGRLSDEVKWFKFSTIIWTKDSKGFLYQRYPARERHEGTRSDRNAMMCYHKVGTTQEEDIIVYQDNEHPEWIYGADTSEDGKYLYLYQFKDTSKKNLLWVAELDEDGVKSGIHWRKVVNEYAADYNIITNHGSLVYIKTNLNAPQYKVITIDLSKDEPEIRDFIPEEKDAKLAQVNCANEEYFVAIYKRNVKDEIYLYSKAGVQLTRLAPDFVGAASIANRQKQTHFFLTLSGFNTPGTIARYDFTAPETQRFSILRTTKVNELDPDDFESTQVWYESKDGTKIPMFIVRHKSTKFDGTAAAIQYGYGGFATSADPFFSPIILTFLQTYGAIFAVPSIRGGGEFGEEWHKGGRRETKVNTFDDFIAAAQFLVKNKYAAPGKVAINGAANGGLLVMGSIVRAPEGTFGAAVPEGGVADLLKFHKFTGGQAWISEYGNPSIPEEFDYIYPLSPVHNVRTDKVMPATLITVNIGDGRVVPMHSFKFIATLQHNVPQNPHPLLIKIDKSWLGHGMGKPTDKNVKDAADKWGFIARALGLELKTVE

[11] = biological target: T4, GmPOPB_S577A; conditions: previously shown; cited from earlier work
[12] = tested on: PresegB1; assay: Activity test of PCY1 variants with PresegB1 as substrate; format: biochemical, Saponaria vaccaria
[13] = biological target: T5, GmPOPB_S577A (Galerina marginata), H2E7Q8; assay: ITC, peptide titrated into GmPOPB_S577A, 20 C
T5 chain: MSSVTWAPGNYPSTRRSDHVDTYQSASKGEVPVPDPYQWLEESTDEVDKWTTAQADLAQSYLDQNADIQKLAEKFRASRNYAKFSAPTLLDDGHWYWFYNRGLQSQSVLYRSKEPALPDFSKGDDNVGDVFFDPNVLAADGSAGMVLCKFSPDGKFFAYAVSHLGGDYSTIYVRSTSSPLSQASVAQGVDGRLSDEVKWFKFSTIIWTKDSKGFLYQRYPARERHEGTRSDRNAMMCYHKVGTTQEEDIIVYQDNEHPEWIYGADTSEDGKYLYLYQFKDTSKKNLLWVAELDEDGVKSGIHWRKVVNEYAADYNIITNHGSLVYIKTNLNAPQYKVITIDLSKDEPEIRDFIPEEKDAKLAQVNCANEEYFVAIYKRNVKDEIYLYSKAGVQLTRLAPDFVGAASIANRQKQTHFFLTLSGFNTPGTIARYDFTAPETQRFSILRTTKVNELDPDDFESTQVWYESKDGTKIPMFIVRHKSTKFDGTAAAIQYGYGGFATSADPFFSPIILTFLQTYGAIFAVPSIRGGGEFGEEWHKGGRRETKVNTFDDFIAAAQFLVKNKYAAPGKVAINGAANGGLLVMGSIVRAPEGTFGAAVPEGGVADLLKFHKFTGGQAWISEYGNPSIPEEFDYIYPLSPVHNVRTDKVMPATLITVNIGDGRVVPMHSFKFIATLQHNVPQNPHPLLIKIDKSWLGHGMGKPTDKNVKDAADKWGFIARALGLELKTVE

Molecule: GmPOPB (Galerina marginata POPB), wild type
- Km, Michaelis-Menten kinetics of macrocyclisation [1]: the 13mer substrate has a Km (25 µM)
- Km, Michaelis-Menten kinetics of macrocyclisation [2]: the 14mer possesses higher Km (380 µM)
- Km, Michaelis-Menten kinetics of macrocyclisation [3]: the 25mer substrate (50 µM)

Molecule: PresegB1: native linear PCY1 substrate presegetalin B1; produces a 5 residue macrocycle (GVAWAFQAKDVENASAPV)
- Kd [4]: ~200 nM
- kcat (table head prints kout) [5]: 0.14 ± 0.01 s⁻¹
- Km ([5]; read-out: Km (table head prints Kin)): 0.25 ± 0.01 µM
- time until completely macrocyclized [6]: ~30 min
- kcat (table head prints kout) ([7]; LC/MS (UV280 nm), 30° C.): 0.37 ± 0.02 s⁻¹
- Km ([7]; LC/MS (UV280 nm), 30° C., read-out: Km (table head prints Kin)): 0.45 ± 0.17 µM
- processing by PCY1 (in words) ([7]; steady state kinetics, FIG. 7): rapidly processed

Molecule: PresegA1: native linear PCY1 substrate presegetalin A1; produces a 6 residue macrocycle (GVPVWAFQAKDVENASAPV; PresegA1)
- Kd [4]: ~200 nM
- time until completely macrocyclized [6]: ~50 min
- turnover number [8]: ~1 h⁻¹

Molecule: FSA-8Aoc-SKPIQT-NH2
- conversion rate overnight [9]: around 50%

Molecule: VGAG-8Aoc-FPIQT-NH2
- conversion overnight (in words) [9]: almost entirely converted

Molecule: WTAEHVDQTLASGNDIC [17mer-recogSeq, reference compound]
- Kd [10]: 430 ± 10 nM
- difference in ΔG between the 17mer recognition sequence and the 25mer peptide [11]: 1.34 kcal/mol

B1: S562A: PCY1 variant (protein)
chain: MATSGFSKPLHYPPVRRDETVVDDYFGVKVADPYRWLEDPNSEETKEFVDNQEKLANSVLEECELIDKFKQKIIDFVNFPRCGVPFRRANKYFHFYNSGLQAQNVFQMQDDLDGKPEVLYDPNLREGGRSGLSLYSVSEDAKYFAFGIHSGLTEWVTIKILKTEDRSYLPDTLEWVKFSPAIWTHDNKGFFYCPYPPLKEGEDHMTRSAVNQEARYHFLGTDQSEDILLWRDLENPAHHLKCQITDDGKYFLLYILDGCDDANKVYCLDLTKLPNGLESFRGREDSAPFMKLIDSFDASYTAIANDGSVFTFQTNKDAPRKKLVRVDLNNPSVWTDLVPESKKDLLESAHAVNENQLILRYLSDVKHVLEIRDLESGALQHRLPIDIGSVDGITARRRDSVVFFKFTSILTPGIVYQCDLKNDPTQLKIFRESVVPDFDRSEFEVKQVFVPSKDGTKIPIFIAARKGISLDGSHPCEMHGYGGFGINMMPTFSASRIVFLKHLGGVFCLANIRGGGEYGEEWHKAGFRDKKQNVFDDFISAAEYLISSGYTKARRVAIEGGANGGLLVAACINQRPDLFGCAEANCGVMDMLRFHKFTLGYLWTGDYGCSDKEEEFKWLIKYSPIHNVRRPWEQPGNEETQYPATMILTADHDDRVVPLHSFKLLATMQHVLCTSLEDSPQKNPIIARIQRKAAHYGRATMTQIAEVADRYGFMAKALEAPWID
- relative activity of PCY1 variant (in words) [12]: inactive

Molecule: MFDTNATRLPIWGIGCNPWTAEHVDQTLASGNDIC (modifications not checked) [35mer substrate (GmAMA1)]
- Kd [13]: 120 nM
